Assays:
hM4 receptors = target: T1, hM4 receptors (Homo sapiens, UniProt P08173); experiment: Human M4 PAM pERK assay; assay type: cell-based; conditions: CHO cells expressing hM4; EC20 of acetylcholine (10 nM final); TR-FRET
T1 construct: expressed in transfected cells; host or cells: CHO cells
T1 sequence (P08173 1-479): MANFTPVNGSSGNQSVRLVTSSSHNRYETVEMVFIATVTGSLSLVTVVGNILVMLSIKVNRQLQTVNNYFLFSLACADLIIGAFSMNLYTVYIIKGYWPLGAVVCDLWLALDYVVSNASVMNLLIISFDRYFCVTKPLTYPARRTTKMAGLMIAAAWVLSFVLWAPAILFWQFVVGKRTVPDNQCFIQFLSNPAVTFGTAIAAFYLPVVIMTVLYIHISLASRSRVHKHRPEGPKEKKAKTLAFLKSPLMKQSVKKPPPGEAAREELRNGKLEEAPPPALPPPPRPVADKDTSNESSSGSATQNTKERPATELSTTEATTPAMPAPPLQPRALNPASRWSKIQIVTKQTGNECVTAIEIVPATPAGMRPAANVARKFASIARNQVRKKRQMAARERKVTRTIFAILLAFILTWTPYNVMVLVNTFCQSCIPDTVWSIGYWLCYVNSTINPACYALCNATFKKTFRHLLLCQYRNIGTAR
Method: (§1) Chinese hamster ovary (CHO) cells expressing either hM4 or rM4 receptors were frozen in assay ready vials (5×10^6 cells/vial) after bulking-up in culture. The day before an assay, vial(s) were thawed and cells seeded in 384 well white proxiplates at 1000/well for hM4 cells and at 2000/well for rM4 cells, in 10 μL of growth media (Hams/F12 with glutamax and 10% FCS) and incubated overnight at 37° C./5% CO2.
(§2) On the following morning, the growth media was removed by ‘flicking out’ over a bin, patting the inverted plate onto tissue, and then replacing with 10 μL of wash media (Hams/F12 with glutamax and 8 mM HEPES, NB: serum free). Then, the wash media was removed in the same way and replaced with 8 μL/well of the serum free media. Plates were then re-incubated for a further 4 hours at 37° C./5% CO2.
(§3) Compounds for testing were solubilized to 10 mM in DMSO and compound addition plates, consisting of ten-point concentration response curves (CRC) in duplicate points (10 μM top concentration, 1/2 log dilution series), were prepared by acoustic dispensing and the compound management group.
(§4) After the 4-hour incubation in serum free media, a 4 μL aliquot of the 3× compound solution containing an EC20 of acetylcholine (10 nM final concentration) was added to the cell plate using a 384 well plate to plate transfer. Then, the plate lid was replaced, and the cells incubated for 5 mins at 37° C./5% CO2. Following this final incubation, all cellular processes were stopped by the addition of 4 μL/well of lysis and blocking buffer and plates were incubated for 30 minutes at RT on an orbital shaker (gentle setting). Then, a final addition of 4 μL/well of antibody detection mix, containing both the Europium-Cryptate (donor) and d2 (acceptor) tagged detection components, was added followed by a further 2-hour incubation at RT, and then the plate was read using a TR-FRET (time resolved fluorescence resonance energy transfer) based protocol.

rM4 receptors = target: T2, rM4 receptors (Rattus norvegicus, UniProt P08485); experiment: Rat M4 PAM pERK assay; assay type: cell-based; conditions: CHO cells expressing rM4; EC20 of acetylcholine (10 nM final); TR-FRET
T2 construct: expressed in transfected cells; host or cells: CHO cells
T2 sequence (P08485 1-478): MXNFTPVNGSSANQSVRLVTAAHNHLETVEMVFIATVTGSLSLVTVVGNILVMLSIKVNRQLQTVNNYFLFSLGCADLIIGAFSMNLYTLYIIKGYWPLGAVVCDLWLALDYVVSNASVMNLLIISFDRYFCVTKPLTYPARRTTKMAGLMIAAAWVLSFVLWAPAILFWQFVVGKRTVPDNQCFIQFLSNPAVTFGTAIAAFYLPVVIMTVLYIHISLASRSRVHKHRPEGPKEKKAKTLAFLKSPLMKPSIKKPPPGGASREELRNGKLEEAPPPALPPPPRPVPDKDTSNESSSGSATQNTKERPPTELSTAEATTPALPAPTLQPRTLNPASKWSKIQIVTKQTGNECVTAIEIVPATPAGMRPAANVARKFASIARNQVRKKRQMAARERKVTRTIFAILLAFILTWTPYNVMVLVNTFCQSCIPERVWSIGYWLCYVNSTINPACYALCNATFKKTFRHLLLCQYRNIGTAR
Method: as §1, §2, §3, §4

COc1nc(C)nc2c1CN(C(=O)CC1CN(c3ccnc(C(F)(F)F)c3)C1)C2C (racemic) [Compound I-61, 1-(4-Methoxy-2,7-dimethyl-5,7-dihydro-6H-pyrrolo[3,4-d]pyrimidin-6-yl)-2-(1-(2-(trifluoromethyl)pyridin-4-yl)azetidin-3-yl)ethan-1-one]
EC50 (hM4 receptors): 0.5 to 2 µM | EC50 (rM4 receptors): 0.5 to 2 µM

COc1nc(C#N)nc2c1C(C)N(C(=O)CC1CN(c3ncns3)C1)C2 (single isomer, unassigned) [Compound I-3, 6-(2-(1-(1,2,4-Thiadiazol-5-yl)azetidin-3-yl)acetyl)-4-methoxy-5-methyl-6,7-dihydro-5H-pyrrolo[3,4-d]pyrimidine-2-carbonitrile]
EC50 (hM4 receptors): 0.1 to 0.5 µM | EC50 (rM4 receptors): 0.5 to 2 µM

COc1nc(C#N)nc2c1C(C)N(C(=O)CC1CN(c3cc(F)cc(F)c3)C1)C2 (single isomer, unassigned) [Compound I-9, 6-(2-(1-(3,5-Difluorophenyl)azetidin-3-yl)acetyl)-4-methoxy-5-methyl-6,7-dihydro-5H-pyrrolo[3,4-d]pyrimidine-2-carbonitrile]
EC50 (hM4 receptors): ≤ 0.1 µM | EC50 (rM4 receptors): ≤ 0.1 µM

COc1nc(C#N)nc2c1C(C)N(C(=O)CC1CN(c3cc(F)cc(F)c3)C1)C2 (single isomer, unassigned) [Compound I-10, 6-(2-(1-(3,5-Difluorophenyl)azetidin-3-yl)acetyl)-4-methoxy-5-methyl-6,7-dihydro-5H-pyrrolo[3,4-d]pyrimidine-2-carbonitrile]
EC50 (hM4 receptors): ≥ 2 µM | EC50 (rM4 receptors): ≥ 2 µM

COc1nc(C#N)nc2c1C(C)N(C(=O)CC1CN(c3cccc(C(F)(F)F)c3)C1)C2 (single isomer, unassigned) [Compound I-16, 4-Methoxy-5-methyl-6-(2-(1-(3-(trifluoromethyl)phenyl)azetidin-3-yl)acetyl)-6,7-dihydro-5H-pyrrolo[3,4-d]pyrimidine-2-carbonitrile]
EC50 (hM4 receptors): 0.1 to 0.5 µM | EC50 (rM4 receptors): 0.1 to 0.5 µM

COc1cc(N2CC(CC(=O)N3Cc4nc(C#N)nc(OC)c4C3C)C2)ccn1 (single isomer, unassigned) [Compound I-17, 4-Methoxy-6-(2-(1-(2-methoxypyridin-4-yl)azetidin-3-yl)acetyl)-5-methyl-6,7-dihydro-5H-pyrrolo[3,4-d]pyrimidine-2-carbonitrile]
EC50 (hM4 receptors): ≥ 2 µM | EC50 (rM4 receptors): ≥ 2 µM

COc1cc(N2CC(CC(=O)N3Cc4nc(C#N)nc(OC)c4C3C)C2)ccn1 (single isomer, unassigned) [Compound I-18, 4-Methoxy-6-(2-(1-(2-methoxypyridin-4-yl)azetidin-3-yl)acetyl)-5-methyl-6,7-dihydro-5H-pyrrolo[3,4-d]pyrimidine-2-carbonitrile]
EC50 (hM4 receptors): ≤ 0.1 µM | EC50 (rM4 receptors): 0.5 to 2 µM

COc1nc(C#N)nc2c1C(C)N(C(=O)CC1CN(c3cncnc3)C1)C2 (single isomer, unassigned) [Compound I-26, 4-Methoxy-5-methyl-6-(2-(1-(pyrimidin-5-yl)azetidin-3-yl)acetyl)-6,7-dihydro-5H-pyrrolo[3,4-d]pyrimidine-2-carbonitrile]
EC50 (hM4 receptors): 0.5 to 2 µM | EC50 (rM4 receptors): ≥ 2 µM

COc1nc(C)nc2c1C(C)N(C(=O)CC1CN(c3cncnc3)C1)C2 (single isomer, unassigned) [Compound I-59, 1-(4-Methoxy-2,5-dimethyl-5,7-dihydro-6H-pyrrolo[3,4-d]pyrimidin-6-yl)-2-(1-(pyrimidin-5-yl)azetidin-3-yl)ethan-1-one]
EC50 (hM4 receptors): ≤ 0.1 µM | EC50 (rM4 receptors): 0.5 to 2 µM

COc1nc(C#N)nc2c1C(C)N(C(=O)CC1C(C)N(c3ccnc(C(F)(F)F)c3)C1C)C2 (centres unmarked) [Compound I-40, 6-(2-(2,4-Dimethyl-1-(2-(trifluoromethyl)pyridin-4-yl)azetidin-3-yl)acetyl)-4-methoxy-5-methyl-6,7-dihydro-5H-pyrrolo[3,4-d]pyrimidine-2-carbonitrile]
EC50 (hM4 receptors): 0.5 to 2 µM | EC50 (rM4 receptors): 0.1 to 0.5 µM

COc1nc(C)nc2c1CN(C(=O)CC1CN(c3cccnc3)C1)C2 [Compound I-41, 1-(4-Methoxy-2-methyl-5,7-dihydro-6H-pyrrolo[3,4-d]pyrimidin-6-yl)-2-(1-(pyridin-3-yl)azetidin-3-yl)ethan-1-one]
EC50 (hM4 receptors): 0.1 to 0.5 µM | EC50 (rM4 receptors): 0.5 to 2 µM

CNc1nc(C)nc2c1CN(C(=O)CC1CN(c3cccnc3)C1)C2 [Compound I-72, 1-(2-Methyl-4-(methylamino)-5,7-dihydro-6H-pyrrolo[3,4-d]pyrimidin-6-yl)-2-(1-(pyridin-3-yl)azetidin-3-yl)ethan-1-one]
EC50 (hM4 receptors): 0.5 to 2 µM | EC50 (rM4 receptors): ≥ 2 µM

Cc1nc2c(c(NC3CC3)n1)CN(C(=O)CC1CN(c3cccnc3)C1)C2 [Compound I-73, 1-(4-(Cyclopropylamino)-2-methyl-5,7-dihydro-6H-pyrrolo[3,4-d]pyrimidin-6-yl)-2-(1-(pyridin-3-yl)azetidin-3-yl)ethan-1-one]
EC50 (hM4 receptors): 0.5 to 2 µM | EC50 (rM4 receptors): ≥ 2 µM

COc1nc(C2COC2)nc2c1CN(C(=O)CC1CN(c3ccnc(C(F)(F)F)c3)C1)C2 [Compound I-77, 1-(4-Methoxy-2-(oxetan-3-yl)-5,7-dihydro-6H-pyrrolo[3,4-d]pyrimidin-6-yl)-2-(1-(2-(trifluoromethyl)pyridin-4-yl)azetidin-3-yl)ethan-1-one]
EC50 (hM4 receptors): ≥ 2 µM | EC50 (rM4 receptors): ≥ 2 µM

COc1nc(C(F)(F)F)nc2c1CN(C(=O)CC1CN(c3cccnc3)C1)C2 [Compound I-78, 1-(4-Methoxy-2-(trifluoromethyl)-5,7-dihydro-6H-pyrrolo[3,4-d]pyrimidin-6-yl)-2-(1-(pyridin-3-yl)azetidin-3-yl)ethan-1-one]
EC50 (hM4 receptors): 0.1 to 0.5 µM | EC50 (rM4 receptors): 0.5 to 2 µM

COc1nc(OC(F)F)nc2c1CN(C(=O)CC1CN(c3cccnc3)C1)C2 [Compound I-80, 1-(2-(Difluoromethoxy)-4-methoxy-5,7-dihydro-6H-pyrrolo[3,4-d]pyrimidin-6-yl)-2-(1-(pyridin-3-yl)azetidin-3-yl)ethan-1-one]
EC50 (hM4 receptors): 0.5 to 2 µM | EC50 (rM4 receptors): ≥ 2 µM

From patent US20260209234A1, “SUBSTITUTED DIHYDROPYRROLO[3,4-D]PYRIMIDINE COMPOUNDS AND THEIR USE IN TREATING MEDICAL CONDITIONS” (Karuna Therapeutics, Inc., priority 2022, published 2026)
